US6900019B1, “In-situ cell extraction and assay method” (Amersham Biosciences UK Limited, priority 1997, dated 2005)

Key:
Mouse 3T3 cells = test: Intracellular prostaglandin E2 in A23187-stimulated mouse 3T3 cells (EIA); assay type: cell-based; conditions: 100 μM A23187, 5 minutes
Procedure: Mouse 3T3 cells were cultured in DMEM media containing 10% (v/v) foetal calf sera (FCS). For PGE2 assays, cells were seeded into standard 96-well tissue culture plates in 100 μl volumes (between 10^5-10^6 cells/ml). Cells were cultured overnight at 37° C. in a 95% air/5% CO2 atmosphere. At this stage a check was made to ensure cells remained viable with Trypan blue exclusion.
On day 2, working solutions of A23187 (1-100 μM final concentration) were prepared in DMEM media in order to stimulate the production of PGE2. Two controls were prepared (a DMSO and a culture media only control). Here cells were cultured in the absence of A23187. Test cell cultures were stimulated with the calcium ionophore A23187 for 5 minutes at room temperature. The culture supernatant was decanted, cells were washed with phosphate buffered saline and lysed with 100 μl/well 0.5% (w/v) DTAB prepared in assay buffer. A check for cell lysis was made with a second Trypan blue exclusion test.
Working PGE2 standards (2.5-320 pg/well) were prepared in polypropylene tubes with assay buffer containing 0.5% (w/v) DTAB. […] Non-specific binding was measured in the absence of PGE2 antisera. […] The optical densities were determined with a microtitre plate spectrophotometer set at 450 nm. Intracellular PGE2 levels were determined using log/linear analysis with reference to a standard curve. […]

ECV304 cells = test: Intracellular IL-6 from IL-1β stimulated ECV304 cells (ELISA); assay type: cell-based, human; conditions: 500 pg/ml IL-1β overnight
Procedure: ECV304 cells were cultured in M-199 media containing 10% (v/v) foetal calf sera (FCS). For IL-6 assays, cells were seeded into standard 96-well tissue culture plates in 100 μl volumes (between 10^5-10^6 cells/ml). Cells were cultured overnight at 37° C. in a 95% air/5% CO2 atmosphere. On day 2 working solutions of IL-1β (2-500 pg/ml; final concentration) were prepared in M-199 media in order to stimulate the production of IL-6. A culture media blank was prepared with cultured cells grown in the absence of IL-1β. Cells were again cultured overnight at 37° C. in a 95% air/5% CO2 atmosphere. On day 3, a 1% (wt) solution of DTAB was prepared in standard diluent. […]
Working standards (10.24400 pg/ml IL-6) were prepared in polypropylene tubes using assay buffer containing 1% (w/v) DTAB. […] Non-specific binding was measured in the absence of IL-6 (zero IL-6 standard). […] The optical density was determined with a microtitre plate spectrophotometer set at 450 nm. Interleukin-6 levels were determined using log/linear analysis with reference to a standard curve. […]
ECV304 cells were seeded at a density of 100,000 cells per well and cultured overnight to confluence in standard 96-well tissue culture plates as described under the methods section. […] Levels of IL-6 were measured in the samples with ELISA (the biotinylated antibody was prepared in the presence of 3% (w/v) alpha-cyclodextrin).

CNc1ccc2oc(C[C@H]3O[C@@]4(CC[C@H]3C)O[C@H]([C@H](C)C(=O)c3ccc[nH]3)[C@H](C)C[C@H]4C)nc2c1C(=O)O [A23187]
Intracellular PGE2 levels (Mouse 3T3 cells): over 400 pg/10^6 cells

IL-1β: Interleukin-1β (Amersham, ARM 17005), used to stimulate the production of IL-6
Intracellular IL-6 levels (ECV304 cells): over 400 pg/10^6 cells
